The term Ki denotes the dissociation constant of the complex between target and ligand, obtained from inhibition or displacement.

21 compounds from patent US7759366B2 (Sanofi-Aventis, priority 2006, dated 2010) can be followed below.

Assay [1] has as its target T1, hCB1R (Homo sapiens, UniProt P21554). Nature of the assay: Binding to the CB1 receptor ([3H]-SR141716A displacement). How it is done:
Binding to the CB1 Receptor:
Test compounds: The compounds (3 μl, 10 mM, 100% DMSO), pipetted into 96-well PP microtiter plates, were diluted with 27 μl of 100% DMSO (dimethyl sulfoxide). Proceeding from this solution, further 3-fold dilution steps were undertaken by transferring 10 μl in each case to a new PP microtiter plate and adding a further 20 μl of 100% DMSO. In each case 6 μl of these solutions were transferred into new 96-well PP microtiter plates and made up with 144 μl of assay buffer. The end concentrations ranged from 10 μM to 0.005 μM. Negative control: AM 251, dissolved in assay buffer with 1% DMSO, was added to the dilution series in the microtiter plates as a control. The end concentration was 1 μM. Blank control: assay buffer with 1% DMSO was added to the dilution series of the microtiter plates as a blank control.
Summary of the Assay Parameters:
High control: ^3H binding without addition of the compound
Low control: ^3H binding in the presence of 1 μM AM 251
The values were calculated using the corrected raw data.
The values reported were obtained as average values of a double determination. The IC50 values were calculated from the measurements with the program Xlfit, formula 205. Ki values were obtained from the IC50 and Kd values utilizing the Cheng-Prusoff equation: […]
Literature: Cheng, Y.-C., and Prusoff, W. H. (1973) Biochem. Pharmacol 22, 3099-3108

Assay [2] has as its target T1, hCB1R. Nature of the assay: In vitro functional assay (FLIPR, intracellular Ca2+) with recombinant HEK293 cells, CB1. Set-up: expressed in transfected cells; host or cells: HEK293. The format is cell-based. The conditions noted are these: recombinant HEK293 cells expressing CB1 and Galpha16; 20 min preincubation, then reference agonist; Ca2+ change; read-out: hCB1R: FLIPR; IC50. An excerpt: In Vitro Functional Assays with Recombinant Cells:

T1 sequence (P21554 whole entry): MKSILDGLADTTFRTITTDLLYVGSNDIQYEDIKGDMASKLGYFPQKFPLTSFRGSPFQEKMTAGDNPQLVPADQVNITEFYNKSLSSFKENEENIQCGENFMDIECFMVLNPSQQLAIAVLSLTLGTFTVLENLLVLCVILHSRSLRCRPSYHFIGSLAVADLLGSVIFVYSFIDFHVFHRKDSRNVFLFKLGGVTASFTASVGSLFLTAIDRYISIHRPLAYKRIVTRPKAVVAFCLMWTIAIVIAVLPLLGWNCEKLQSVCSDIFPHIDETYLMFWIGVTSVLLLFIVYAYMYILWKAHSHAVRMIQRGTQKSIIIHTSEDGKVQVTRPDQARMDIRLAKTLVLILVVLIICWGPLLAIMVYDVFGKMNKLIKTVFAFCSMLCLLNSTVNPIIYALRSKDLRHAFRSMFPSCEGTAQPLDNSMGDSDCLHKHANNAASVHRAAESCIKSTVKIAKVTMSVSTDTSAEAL

On to `COc1ccc(Nc2ccccc2)c(CN2C(=O)N(c3ccc(C#N)c(C(F)(F)F)c3)C(=O)C2(C)C)c1` [Example 6, 4-[3-(5-Methoxy-2-phenylaminobenzyl)-4,4-dimethyl-2,5-dioxoimidazolidin-1-yl]-2-trifluoromethylbenzonitrile], for which the Ki on hCB1R [1] turned out to be 21 nM. On to `COc1ccc(Nc2ccc(F)cc2)c(CN2C(=O)N(c3ccc(C#N)c(C(F)(F)F)c3)C(=O)C2(C)C)c1` [Example 7, 4-{3-[2-(4-fluorophenylamino)-5-methoxybenzyl]-4,4-dimethyl-2,5-dioxoimidazolidin-1-yl}-2-trifluoromethylbenzonitrile], for which the inhibition constant Ki on hCB1R [1] stood at 15 nM. As to `COc1ccc(Nc2ccc(C(F)(F)F)cc2)c(CN2C(=O)N(c3ccc(C#N)c(C(F)(F)F)c3)C(=O)C2(C)C)c1` [Example 8, 4-{3-[5-methoxy-2-(4-trifluoromethylphenylamino)benzyl]-4,4-dimethyl-2,5-dioxoimidazolidin-1-yl}-2-trifluoromethylbenzonitrile], on hCB1R [1], the affinity, expressed as Ki, was 15 nM. Still for that read-out and setting: under `COc1ccc(Nc2ccc(Cl)cc2)c(CN2C(=O)N(c3ccc(C#N)c(C(F)(F)F)c3)C(=O)C2(C)C)c1` [Example 9, 4-{3-[2-(4-chlorophenylamino)-5-methoxybenzyl]-4,4-dimethyl-2,5-dioxoimidazolidin-1-yl}-2-trifluoromethylbenzonitrile] stands 13 nM.

As to `COc1ccc(Nc2ccc(C#N)c(C(F)(F)F)c2)c(CN2C(=O)N(c3ccc(C#N)c(C(F)(F)F)c3)C(=O)C2(C)C)c1` [Example 10, 4-{3-[2-(4-cyano-3-trifluoromethylphenylamino)-5-methoxybenzyl]-4,4-dimethyl-2,5-dioxoimidazolidin-1-yl}-2-trifluoromethylbenzonitrile], the Ki on hCB1R [1] is 24 nM.

`CC1(C)C(=O)N(c2ccc(C#N)c(C(F)(F)F)c2)C(=O)N1Cc1ccccc1Nc1ccc(OC(F)(F)F)cc1` [Example 12, 4-{3-[2-(4-trifluoromethoxy-phenylamino)benzyl]-4,4-dimethyl-2,5-dioxoimidazolidin-1-yl}-2-trifluoromethylbenzonitrile]: affinity on hCB1R [1] was put at a Ki of 0.9 nM. Take `CC1(C)C(=O)N(c2ccc(C#N)c(C(F)(F)F)c2)C(=O)N1Cc1ccccc1Nc1ccc(Cl)cc1Cl` [Example 13, 4-{3-[2-(2,4-dichlorophenylamino)benzyl]-4,4-dimethyl-2,5-dioxoimidazolidin-1-yl}-2-trifluoromethylbenzonitrile]: at hCB1R [1], affinity was put at a Ki of 0.9 nM. For `CC1(C)C(=O)N(c2ccc(C#N)c(C(F)(F)F)c2)C(=O)N1Cc1cc(F)ccc1Nc1ccc(F)cc1` [Example 15, 4-{3-[5-Fluoro-2-(4-fluorophenylamino)benzyl]-4,4-dimethyl-2,5-dioxoimidazolidin-1-yl}-2-trifluoromethylbenzonitrile], the affinity at hCB1R [1], expressed as Ki, was 2 nM. As for `CC1(C)C(=O)N(c2ccc(C#N)c(C(F)(F)F)c2)C(=O)N1Cc1cc(F)ccc1Nc1ccc(Cl)cc1` [Example 16, 4-{3-[2-(4-chlorophenylamino)-5-fluorobenzyl]-4,4-dimethyl-2,5-dioxoimidazolidin-1-yl}-2-trifluoromethylbenzonitrile], the Ki on hCB1R [1] came to 2 nM. `CC1(C)C(=O)N(c2ccc(C#N)c(C(F)(F)F)c2)C(=O)N1Cc1cc(C(F)(F)F)ccc1Nc1ccc(F)cc1` [Example 17, 4-{3-[2-(4-Fluorophenylamino)-5-trifluoromethylbenzyl]-4,4-dimethyl-2,5-dioxoimidazolidin-1-yl}-2-trifluoromethylbenzonitrile] returned an inhibition constant Ki at hCB1R [1] of 3 nM. As to `CC1(C)C(=O)N(c2ccc(C#N)c(C(F)(F)F)c2)C(=O)N1Cc1cc(F)ccc1Nc1ccccc1` [Example 18, 4-[3-(5-fluoro-2-phenylaminobenzyl)-4,4-dimethyl-2,5-dioxoimidazolidin-1-yl]-2-trifluoromethylbenzonitrile], on hCB1R [1], the inhibition constant (Ki) is 5 nM.

For the compound `CC(C(=O)O)(C(=O)O)c1ccc(Nc2ccccc2CN2C(=O)N(c3ccc(C#N)c(C(F)(F)F)c3)C(=O)C2(C)C)cc1` [Example 233, 2-(4-{2-[3-(4-Cyano-3-trifluoromethylphenyl)-5,5-dimethyl-2,4-dioxoimidazolidin-1-ylmethyl]phenylamino}phenyl)-2-methylmalonic acid], the IC50 on hCB1R [2] is 22 nM. Same read-out and setting: the figure for `CC1(C)C(=O)N(c2ccc(C#N)c(C(F)(F)F)c2)C(=O)N1Cc1ccccc1Nc1ccc(C(C(=O)O)C(=O)O)cc1` [Example 238, 2-(4-{2-[3-(4-cyano-3-trifluoromethylphenyl)-5,5-dimethyl-2,4-dioxoimidazolidin-1-ylmethyl]phenylamino}phenyl)malonic acid] is 10 nM; for `CC1(C)C(=O)N(c2ccc(F)c(C(F)(F)F)c2)C(=O)N1Cc1ccc(F)cc1Nc1ccc2c(c1)C(=O)CCO2` [Example 239, 1-[4-fluoro-2-(4-oxochroman-6-ylamino)benzyl]-3-(4-fluoro-3-trifluoromethylphenyl)-5,5-dimethylimidazolidine-2,4-dione] it is 103 nM. For `CC1(C)C(=O)N(c2ccc(F)c(C(F)(F)F)c2)C(=O)N1Cc1ccc(F)cc1Nc1ccc(NS(C)(=O)=O)cc1` [Example 240, N-(4-{5-Fluoro-2-[3-(4-fluoro-3-trifluoromethylphenyl)-5,5-dimethyl-2,4-dioxoimidazolidin-1-ylmethyl]phenylamino}phenyl)methanesulfonamide], the IC50 at hCB1R [2] was determined as 11 nM. Take `CC1(C)C(=O)N(c2ccc(C#N)c(C(F)(F)F)c2)C(=O)N1Cc1ccccc1Nc1ccc(C(=O)O)c(O)c1` [Example 243]: the IC50 on hCB1R [2] amounted to 99 nM. Turning to `CC1(C)C(=O)N(c2ccc(C#N)c(C(F)(F)F)c2)C(=O)N1Cc1ccccc1Nc1cnc(O)nc1O` [Example 246, 4-{3-[2-(2,4-Dihydroxypyrimidin-5-ylamino)benzyl]-4,4-dimethyl-2,5-dioxoimidazolidin-1-yl}-2-trifluoromethylbenzonitrile], the IC50 at hCB1R [2] amounted to 7 nM. As to `CC1(C)C(=O)N(c2ccc(C#N)c(-c3ccc(F)cc3)c2)C(=O)N1Cc1ccc(F)cc1Nc1ccc(F)cc1F` [Example 253, 5-{3-[2-(2,4-Difluorophenylamino)-4-fluorobenzyl]-4,4-dimethyl-2,5-dioxoimidazolidin-1-yl}-4′-fluorobiphenyl-2-carbonitrile], the IC50 on hCB1R [2] stood at 29 nM. On to `CC1(C)C(=O)N(c2ccc(F)c(C(F)(F)F)c2)C(=O)N1Cc1ccc(F)cc1Nc1ccc(F)nc1` [Example 254, 1-[4-Fluoro-2-(6-fluoropyridin-3-ylamino)benzyl]-3-(4-fluoro-3-trifluoromethylphenyl)-5,5-dimethylimidazolidine-2,4-dione], for which the IC50 at hCB1R [2] was 2 nM. On to `COC(=O)c1ccc(Nc2cc(F)ccc2CN2C(=O)N(c3ccc(F)c(C(F)(F)F)c3)C(=O)C2(C)C)cn1` [Example 255, Methyl 5-{5-fluoro-2-[3-(4-fluoro-3-trifluoromethylphenyl)-5,5-dimethyl-2,4-dioxoimidazolidin-1-ylmethyl]phenylamino}pyridine-2-carboxylate], for which the IC50 on hCB1R [2] is 28 nM. On to `CC1(C)C(=O)N(c2ccc(C#N)c(-c3ccc(F)cc3)c2)C(=O)N1Cc1ccc(F)cc1Nc1ccc(C(=O)O)cc1` [Example 258, 4-{2-[3-(6-Cyano-4′-fluorobiphenyl-3-yl)-5,5-dimethyl-2,4-dioxoimidazolidin-1-ylmethyl]-5-fluorophenylamino}benzoic acid], for which, at hCB1R [2], the IC50 was 31 nM.
